Reference: paper PMC5811606, “Characterization of ^111In-labeled Glucose-Dependent Insulinotropic Polypeptide as a Radiotracer for Neuroendocrine Tumors” (Scientific Reports, 2018)
Read-outs that look alike come from different tables or passages of the source.

Experiment: Peptide dose escalation study, BHK-GIPR tumor mice
Type: in vivo, BALB/c nude mice
Conditions: female, mouse, iv, total radioactivity, BHK-GIPR tumor BALB/c nude mice, i.v., 4 h p.i., mean n=5
Experimental: All animal experiments were approved by the Animal Welfare Body of the Radboud University, Nijmegen, The Netherlands and carried out in accordance with their guidelines. Six to eight weeks old, female BALB/c nude mice and C3H mice were purchased from Janvier labs (Le Genest Saint Isle, France). For all in vivo experiments, 6-8 weeks old female BALB/c nude mice were injected subcutaneously in the right shoulder with 0.2 ml of a 2.5 × 10^7 cells/ml suspension of BHK-GIPR transfected cells or with 0.2 ml of a 2.5 × 10^7 cells/ml suspension of NES2Y cells mixed with matrigel (2:1) in the right shoulder. When the tumor reached a diameter of 2-5 mm, mice were randomly divided in groups.
To determine the optimal peptide dose of [Lys^37(DTPA)]N-acetyl-GIP1-42, BHK-GIPR transfected tumor bearing BALB/c nude mice (n = 5/group) were injected intravenously with approximately 3 MBq [Lys^37(^111In-DTPA)]N-acetyl-GIP1-42 (0.05 µg) in the tail vein and were co-injected with escalating amounts of unlabeled [Lys^37(DTPA)]N-acetyl-GIP1-42 (0.05 µg – 1.95 µg), resulting in final peptide doses ranging from 0.1 to 2 µg/mouse (0.02 – 0.4 nmol/mouse) (5 groups, n = 5/group). Four hours after injection, mice were euthanized by CO2/O2 suffocation and tumors and other relevant tissues (heart, muscle, lung, spleen, pancreas, kidney, liver, stomach and duodenum) were dissected, weighed and measured in a well type gamma counter. The percentage injected dose per gram of tissue (%ID/g) was determined for each tissue.

CC[C@H](C)[C@H](NC(=O)[C@H](CO)NC(=O)[C@H](Cc1ccc(O)cc1)NC(=O)[C@H](CC(=O)O)NC(=O)[C@H](CO)NC(=O)[C@@H](NC(=O)[C@H](Cc1ccccc1)NC(=O)[C@@H](NC(=O)CNC(=O)[C@H](CCC(=O)O)NC(=O)[C@H](C)NC(=O)[C@H](Cc1ccc(O)cc1)NC(C)=O)[C@@H](C)O)[C@@H](C)CC)C(=O)N[C@@H](C)C(=O)N[C@@H](CCSC)C(=O)N[C@@H](CC(=O)O)C(=O)N[C@@H](CCCCN)C(=O)N[C@H](C(=O)N[C@@H](Cc1c[nH]cn1)C(=O)N[C@@H](CCC(N)=O)C(=O)N[C@@H](CCC(N)=O)C(=O)N[C@@H](CC(=O)O)C(=O)N[C@@H](Cc1ccccc1)C(=O)N[C@H](C(=O)N[C@@H](CC(N)=O)C(=O)N[C@@H](Cc1c[nH]c2ccccc12)C(=O)N[C@@H](CC(C)C)C(=O)N[C@@H](CC(C)C)C(=O)N[C@@H](C)C(=O)N[C@@H](CCC(N)=O)C(=O)N[C@@H](CCCCN)C(=O)NCC(=O)N[C@@H](CCCCN)C(=O)N[C@@H](CCCCN)C(=O)N[C@@H](CC(N)=O)C(=O)N[C@@H](CC(=O)O)C(=O)N[C@@H](Cc1c[nH]c2ccccc12)C(=O)N[C@@H](CCCCNC(=O)CN(CCN(CCN(CC(=O)O)CC(=O)O)CC(=O)O)CC(=O)O)C(=O)N[C@@H](Cc1c[nH]cn1)C(=O)N[C@@H](CC(N)=O)C(=O)N[C@H](C(=O)N[C@H](C(=O)N[C@@H](CCC(N)=O)C(=O)O)[C@@H](C)O)[C@@H](C)CC)C(C)C)[C@@H](C)CC [[Lys^37(^111In-DTPA)]N-acetyl-GIP1-42, metal not drawn]
tissue uptake at 4 h (pancreas, 0.1 ug/mouse, peptide dose 0.1 µg, read-out: Pancreas uptake): 0.169 %ID/g
tissue uptake at 4 h (pancreas, 0.2 ug/mouse, peptide dose 0.2 µg, read-out: Pancreas uptake): 0.234 %ID/g
tissue uptake at 4 h (pancreas, 0.5 ug/mouse, peptide dose 0.5 µg, read-out: Pancreas uptake): 0.199 %ID/g
tissue uptake at 4 h (pancreas, 1 ug/mouse, peptide dose 1 µg, read-out: Pancreas uptake): 0.257 %ID/g
tissue uptake at 4 h (pancreas, 2 ug/mouse, peptide dose 2 µg, read-out: Pancreas uptake): 0.213 %ID/g
tissue uptake at 4 h (spleen, 0.1 ug, peptide dose 0.1 µg, read-out: Spleen uptake): 0.648 %ID/g
tissue uptake at 4 h (spleen, 0.2 ug, peptide dose 0.2 µg, read-out: Spleen uptake): 0.692 %ID/g
tissue uptake at 4 h (spleen, 0.5 ug, peptide dose 0.5 µg, read-out: Spleen uptake): 0.594 %ID/g
tissue uptake at 4 h (spleen, 1 ug, peptide dose 1 µg, read-out: Spleen uptake): 0.781 %ID/g
tissue uptake at 4 h (spleen, 2 ug, peptide dose 2 µg, read-out: Spleen uptake): 0.713 %ID/g
tissue uptake at 4 h (stomach, 0.1 ug/mouse, peptide dose 0.1 µg, read-out: Stomach uptake): 0.41 %ID/g
tissue uptake at 4 h (stomach, 0.2 ug/mouse, peptide dose 0.2 µg, read-out: Stomach uptake): 0.418 %ID/g
tissue uptake at 4 h (stomach, 0.5 ug/mouse, peptide dose 0.5 µg, read-out: Stomach uptake): 0.411 %ID/g
tissue uptake at 4 h (stomach, 1 ug/mouse, peptide dose 1 µg, read-out: Stomach uptake): 0.527 %ID/g
tissue uptake at 4 h (stomach, 2 ug/mouse, peptide dose 2 µg, read-out: Stomach uptake): 0.437 %ID/g
tissue to tissue ratio at 4 h (tumor/blood, 2 ug/mouse, peptide dose 2 µg, read-out: Tumor/Blood): 38
tissue to tissue ratio at 4 h (tumor/heart, 0.1 ug/mouse, peptide dose 0.1 µg, read-out: Tumor/Heart): 35.6
tissue to tissue ratio at 4 h (tumor/heart, 0.2 ug/mouse, peptide dose 0.2 µg, read-out: Tumor/Heart): 33.1
tissue to tissue ratio at 4 h (tumor/heart, 0.5 ug/mouse, peptide dose 0.5 µg, read-out: Tumor/Heart): 14.6
tissue to tissue ratio at 4 h (tumor/heart, 1 ug/mouse, peptide dose 1 µg, read-out: Tumor/Heart): 16.4
tissue to tissue ratio at 4 h (tumor/heart, 2 ug/mouse, peptide dose 2 µg, read-out: Tumor/Heart): 11.2
tissue to tissue ratio at 4 h (tumor/kidney, 0.1 ug/mouse, peptide dose 0.1 µg, read-out: Tumor/Kidney): 0.02
tissue to tissue ratio at 4 h (tumor/kidney, 0.2 ug/mouse, peptide dose 0.2 µg, read-out: Tumor/Kidney): 0.019
tissue to tissue ratio at 4 h (tumor/kidney, 0.5 ug/mouse, peptide dose 0.5 µg, read-out: Tumor/Kidney): 0.011
tissue to tissue ratio at 4 h (tumor/kidney, 1 ug/mouse, peptide dose 1 µg, read-out: Tumor/Kidney): 0.01
tissue to tissue ratio at 4 h (tumor/kidney, 2 ug/mouse, peptide dose 2 µg, read-out: Tumor/Kidney): 0.008
tissue to tissue ratio at 4 h (tumor/lung, 0.1 ug/mouse, peptide dose 0.1 µg, read-out: Tumor/Lung): 13
tissue to tissue ratio at 4 h (tumor/lung, 0.2 ug/mouse, peptide dose 0.2 µg, read-out: Tumor/Lung): 10
tissue to tissue ratio at 4 h (tumor/lung, 0.5 ug/mouse, peptide dose 0.5 µg, read-out: Tumor/Lung): 4.18
tissue to tissue ratio at 4 h (tumor/lung, 1 ug/mouse, peptide dose 1 µg, read-out: Tumor/Lung): 4.81
tissue to tissue ratio at 4 h (tumor/lung, 2 ug/mouse, peptide dose 2 µg, read-out: Tumor/Lung): 3.58
tissue to tissue ratio at 4 h (tumor/muscle, 0.1 ug/mouse, peptide dose 0.1 µg, read-out: Tumor/Muscle): 33.7
tissue to tissue ratio at 4 h (tumor/muscle, 0.2 ug/mouse, peptide dose 0.2 µg, read-out: Tumor/Muscle): 41.1
tissue to tissue ratio at 4 h (tumor/muscle, 0.5 ug/mouse, peptide dose 0.5 µg, read-out: Tumor/Muscle): 19.1
tissue to tissue ratio at 4 h (tumor/muscle, 1 ug/mouse, peptide dose 1 µg, read-out: Tumor/Muscle): 20.9
tissue to tissue ratio at 4 h (tumor/muscle, 2 ug/mouse, peptide dose 2 µg, read-out: Tumor/Muscle): 12.2
